Values joined by “and” are separate entries in the source; they are usually repeats but may differ in a detail not shown here. Identical values can stand only once.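 All cell lines were grown in 96-well plates and treated with compound for 48 hours. GI50 marks 50% less growth. TGI denotes the concentration required for complete inhibition of growth.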
Tests used:
Assay in all cases: DTP human tumour cell line panel, 48 h
[1] = tested on: ACHN renal
[2] = tested on: UACC-257 melanoma
[3] = tested on: OVCAR-8 ovarian
[4] = tested on: PC-3 prostate
[5] = tested on: K-562 leukemia
[6] = tested on: A498 renal
[7] = tested on: RXF 393 renal
[8] = tested on: NCI-H23 lung
[9] = tested on: HOP-92 NSCLC
[10] = tested on: SN12C renal

SMILES	TGI [1] [µM]	TGI [2] [µM]	TGI [3]	TGI [4] [µM]	TGI [5] [µM]	TGI [6]	TGI [7]	TGI [8]	TGI [9]	TGI [10]	GI50 [2] [µM]	GI50 [3]	GI50 [4]	GI50 [5]	GI50 [6]	GI50 [7]	GI50 [8]	GI50 [9]	GI50 [10]	GI50 [1]
COc1ccc2c(c1)Cc1cc(N=[N+]([O-])c3ccc4c(c3)Cc3cc(OC)ccc3-4)ccc1-2	> 100	52.7	> 100 µM	> 100	> 100	95 µM	> 100 µM	> 100 µM	> 100 µM	> 100 µM	–	–	–	–	–	–	–	–	–	–
COC(=O)C1=C(O)C(C(=O)OC)[C@@]2(O)[C@@H](C(=O)OC)C(c3ccc(OC(=O)C(Cc4ccccc4)NC(C)=O)cc3)C[C@@H]1[C@@H]2C(=O)OC (stereo partly specified)	–	50.5	59.2 µM	91	> 100	62.9 µM	51.2 µM	48.1 µM	58.8 µM	62.1 µM	13.9	23.1 µM	27.6 µM	19.1 µM	24.5 µM	25.4 µM	19.9 µM	21.4 µM	22.6 µM	–
CC(=N\O)/C(C)=N/O.CC(=N\O)/C(C)=N/O.[Pd]	> 10	> 10	3.62 µM	> 10	> 10	> 10 µM	7.42 µM	6.38 µM	–	> 10 µM	3.15	1.84 µM	4.73 µM	> 10 µM	4.9 µM	3.42 µM	2.6 µM	–	8.65 µM	> 10 µM
COc1cc(C2CC(c3ccc(C)cc3)=NN2C(C)=O)ccc1Oc1ccnc2cc(Cl)ccc12 (stereo unspecified)	> 100	> 100	–	> 100	> 100	78 µM	> 100 µM	> 100 µM	> 100 µM	> 100 µM	> 100	–	> 100 µM	> 100 µM	13.1 µM	3.57 µM	2.71 µM	30.1 µM	> 100 µM	2.76 µM
COc1ccc(-n2cc(-c3ccc(Cl)cc3)[nH]c2=S)cc1Cl	> 100	> 100	> 100 µM	> 100	> 100	–	54.1 µM	> 100 µM	43.5 µM	> 100 µM	> 100	37.4 µM	30.7 µM	> 100 µM	–	25.6 µM	84.4 µM	17.2 µM	39.1 µM	33.1 µM
COC1=C(NC(C)=O)C(=O)c2nc3n(c2C1=O)CCC3	40.7	30.4	33.5 µM	> 100	> 65.1	50.2 µM	31.7 µM	39 µM	26.2 µM	32.3 µM	–	–	–	–	–	–	–	–	–	–
CCCCCc1c(C)[nH]c(/C=C2\N=C(c3ccc[nH]3)C=C2Oc2ccc(OC)cc2)c1C	–	0.998	1.12 µM and 0.207 µM	1.03	> 100	1.19 µM and 0.234 µM	0.567 µM and 0.244 µM	2.84 µM and 1.55 µM	0.575 µM and 0.101 µM	1.54 µM and 0.418 µM	0.125	0.18 µM and 0.0412 µM	0.106 µM and 0.0275 µM	0.0719 µM and 0.0435 µM	0.194 µM and 0.0304 µM	0.12 µM and 0.0294 µM	0.258 µM and 0.0806 µM	0.145 µM and 0.0153 µM	0.2 µM and 0.0483 µM	0.18 µM and 0.0482 µM
CC(C)n1c2c(c3ccccc3c1=O)C(=O)c1ccccc1-2	–	> 100	> 100 µM	> 100	> 100	> 100 µM	–	> 100 µM	> 100 µM	> 100 µM	–	–	–	–	–	–	–	–	–	–
C=CC[n+]1c(/C=C2\Sc3ccccc3N2C)sc(-c2ccccc2)c1-c1ccccc1	10.2	0.737	10.9 µM	1.34	10	2.32 µM	8.94 µM	10.9 µM	0.571 µM	1.47 µM	0.239	0.338 µM	0.264 µM	0.344 µM	0.264 µM	0.519 µM	0.289 µM	0.155 µM	0.298 µM	1.7 µM
COc1ccc(-c2ccc(/C=N/n3cnn(CN4CCN(C)CC4)c3=S)o2)c([N+](=O)[O-])c1	70.5	–	55.5 µM	> 100	> 100	–	> 100 µM	54.6 µM	58.4 µM	–	–	18.9 µM	39.3 µM	33.6 µM	–	24.4 µM	16.8 µM	17.1 µM	–	30.1 µM
CC(=O)c1c[nH]c2ccc(-c3ccnc(Nc4ccc(NC(=O)c5cccc(F)c5)c(CN5CCOCC5)c4)n3)cc12	3.1	2.65	> 100 µM	2.96	> 100	0.38 µM	0.054 µM	1.09 µM	1.17 µM	> 23.3 µM	0.304	0.255 µM	0.224 µM	0.303 µM	0.102 µM	0.0221 µM	0.195 µM	0.154 µM	0.153 µM	0.0845 µM
Cc1c(Br)cccc1NC(=O)c1sc2nc3c(cc2c1N)CN(Cc1ccccc1)CC3	40	> 50	> 50 µM	22.4	–	3.89 µM	0.402 µM	> 50 µM	10.7 µM	> 50 µM	8.92	0.298 µM	0.204 µM	–	0.186 µM	0.123 µM	0.343 µM	0.509 µM	0.384 µM	0.444 µM
Oc1ccc(Br)cc1CN1CCN(Cc2ccc(Cl)cc2)CC1	> 100	59.4	> 100 µM	> 100	> 100	45 µM	80 µM	> 100 µM	72.1 µM	> 100 µM	16.5	24.8 µM	23.9 µM	10.2 µM	0.4 µM	17.3 µM	16.5 µM	11.1 µM	27.1 µM	31.7 µM
CC([C@H]1CCC2C3CCC4C(=O)C(NC=O)=CC[C@]4(C)C3CC[C@@]21C)N(C)C (stereo partly specified)	17.2	10.4	40.9 µM	14.5	> 23.8	12.5 µM	16.6 µM	18.7 µM	12.7 µM	14.9 µM	4.24	6.16 µM	2.51 µM	0.965 µM	3.83 µM	4.66 µM	4.42 µM	4.64 µM	2.92 µM	4.86 µM

From PubChem BioAssay (NCI)
